In US7781565B2 (priority 2006, dated 2010):

System: NCI-60 cell lines
Type: cell-based, human

Substance: PRHRASQ
- Cell Line (NCI-60 cell line the peptide and its motif are associated with): OVCAR-8 Ovarian

Substance: GRLDAFG
- Cell Line (NCI-60 cell line the peptide and its motif are associated with): SK-MEL-5 Melanoma

Substance: GPSWATV
- Cell Line (NCI-60 cell line the peptide is associated with): LOX-IMVI Melanoma

Substance: IGAVSGW
- Cell Line (NCI-60 cell line the peptide is associated with): SNB-75 CNS

Substance: RVSNEAL
- Cell Line (NCI-60 cell line the peptide and its motif are associated with): SK-OV-3-3 Ovarian

Substance: PGLRGPA
- Cell Line (NCI-60 cell line the peptide and its motif are associated with): OVCAR-4 Ovarian

Substance: SKYRLRS
- Cell Line with which the peptide (and its tripeptide motif) is associated: RPMI-8226-Leukemia

Substance: NVSRAVG
- Cell Line (NCI-60 cell line the peptide and its motif are associated with): OVCAR-8 Ovarian

Substance: VWAGVLL
- Cell Line with which the peptide (and its tripeptide motif) is associated: Hop-62-Lung

Substance: YYGERSS
- Cell Line (NCI-60 cell line the peptide and its motif are associated with): OVCAR-5 Ovarian

Substance: FSLVSFV
- Cell Line (NCI-60 cell line the peptide and its motif are associated with): SK-MEL-2 Melanoma

Substance: AGGRLGL
- Cell Line (NCI-60 cell line the peptide is associated with): SF-268 CNS

Substance: TLGGLRT
- Cell Line (NCI-60 cell line the peptide is associated with): SF-295 CNS

Substance: ARAIGLG
- Cell Line with which the peptide (and its tripeptide motif) is associated: Molt-4-Leukemia

Substance: GGSFSGL
- Cell Line with which the peptide (and its tripeptide motif) is associated: A549-Lung

Substance: FGVLFRS
- Cell Line with which the peptide (and its tripeptide motif) is associated: EKVX-Lung

Substance: FAAGAGS
- Cell Line (NCI-60 cell line the peptide and its motif are associated with): 786-0 Renal

Substance: LLGAGTP
- Cell Line (NCI-60 cell line the peptide and its motif are associated with): IGROV1 Ovarian

Substance: VLRSALQ
- Cell Line (NCI-60 cell line the peptide is associated with): KM-12C Colon

Substance: FGVSGGS
- Cell Line the peptide is associated with (peptide recovered from phage library selection on this NCI-60 cell line): MDA-MB-231 Breast

Substance: FHVAGGS
- Cell Line with which the peptide (and its tripeptide motif) is associated: SR Leukemia

Substance: RVMRGSL
- Cell Line the peptide is associated with (peptide recovered from phage library selection on this NCI-60 cell line): MCF-7 Breast

Substance: LGAGMIA
- Cell Line (NCI-60 cell line the peptide and its motif are associated with): OVCAR-8 Ovarian

Substance: GVSALSL
- Cell Line (NCI-60 cell line the peptide is associated with): HT-29 Colon

Substance: GSSLSRP
- Cell Line the peptide is associated with (peptide recovered from phage library selection on this NCI-60 cell line): RXF393 Renal

Substance: PVGAAVA
- Cell Line (NCI-60 cell line the peptide and its motif are associated with): UACC62 Melanoma

Substance: GRLRPFS
- Cell Line the peptide is associated with (peptide recovered from phage library selection on this NCI-60 cell line): TK-10 Renal

Substance: SGHGVSA
- Cell Line with which the peptide (and its tripeptide motif) is associated: H23-Lung

Substance: GAVDGSR
- Cell Line with which the peptide (and its tripeptide motif) is associated: RPMI-8226-Leukemia

Substance: PGAVLTV
- Cell Line (NCI-60 cell line the peptide is associated with): COLO-205-Colon

Substance: AGGGGYH
- Cell Line the peptide is associated with (peptide recovered from phage library selection on this NCI-60 cell line): MDA-MB-435-Breast

Substance: AGLQHAV
- Cell Line (NCI-60 cell line the peptide is associated with): HCT-15 Colon

Substance: GRGVLAF
- Cell Line (NCI-60 cell line the peptide is associated with): KM-12C Colon

Substance: LRASLLW
- Cell Line (NCI-60 cell line the peptide is associated with): HCC-2998-Colon

Substance: SVDRGVI
- Cell Line (NCI-60 cell line the peptide is associated with): LOX-IMVI Melanoma

Substance: GAGGMAR
- Cell Line with which the peptide (and its tripeptide motif) is associated: RPMI-8226-Leukemia

Substance: GAGTSEG
- Cell Line the peptide is associated with (peptide recovered from phage library selection on this NCI-60 cell line): TK-10 Renal

Substance: LKVRGVL
- Cell Line (NCI-60 cell line the peptide is associated with): HT-29 Colon

Substance: SGAGAAF
- Cell Line (NCI-60 cell line the peptide and its motif are associated with): 786-0 Renal

Substance: GRGVTIW
- Cell Line (NCI-60 cell line the peptide is associated with): HT-29 Colon

Substance: GRLVWGL
- Cell Line (NCI-60 cell line the peptide is associated with): HCT-116 Colon

Substance: FSNARGY
- Cell Line (NCI-60 cell line the peptide and its motif are associated with): DU-145 Prostate

Substance: FVPRGSY
- Cell Line (NCI-60 cell line the peptide and its motif are associated with): OVCAR-4 Ovarian

Substance: AGRTGVG
- Cell Line with which the peptide (and its tripeptide motif) is associated: SR Leukemia

Substance: YATLGSS
- Cell Line (NCI-60 cell line the peptide and its motif are associated with): PC3 Prostate

Substance: AAGRAGC
- Cell Line with which the peptide (and its tripeptide motif) is associated: H322-Lung

Substance: GSVLGDY
- Cell Line (NCI-60 cell line the peptide is associated with): COLO-205-Colon

Substance: YVGLVVS
- Cell Line with which the peptide (and its tripeptide motif) is associated: SR Leukemia

Substance: SFAGRIL
- Cell Line the peptide is associated with (peptide recovered from phage library selection on this NCI-60 cell line): T-47D Breast

Substance: GLMRLSH
- Cell Line (NCI-60 cell line the peptide and its motif are associated with): UACC62 Melanoma

Substance: EVIGSGI
- Cell Line with which the peptide (and its tripeptide motif) is associated: A549-Lung

Substance: SGLVAMV
- Cell Line (NCI-60 cell line the peptide is associated with): SW620-Colon

Substance: TSGAVAP
- Cell Line the peptide is associated with (peptide recovered from phage library selection on this NCI-60 cell line): HS 578 T Breast

Substance: PRYGVRA
- Cell Line with which the peptide (and its tripeptide motif) is associated: RPMI-8226-Leukemia

Substance: WRLLRRQ
- Cell Line with which the peptide (and its tripeptide motif) is associated: SR Leukemia

Substance: RASIGIE
- Cell Line (NCI-60 cell line the peptide and its motif are associated with): UACC 257 Melanoma

Substance: GRSSGME
- Cell Line (NCI-60 cell line the peptide is associated with): HT-29 Colon

Substance: GVNGSVS
- Cell Line (NCI-60 cell line the peptide and its motif are associated with): SK-MEL-28 Melanoma

Substance: GLGRSVN
- Cell Line the peptide is associated with (peptide recovered from phage library selection on this NCI-60 cell line): T-47D Breast

Substance: PGGSDAA
- Cell Line (NCI-60 cell line the peptide is associated with): SNB-19 CNS

Substance: LAGLVSG
- Cell Line (NCI-60 cell line the peptide is associated with): HT-29 Colon

Substance: FDRAVAN
- Cell Line with which the peptide (and its tripeptide motif) is associated: Hop-62-Lung

Substance: AARGELR
- Cell Line (NCI-60 cell line the peptide and its motif are associated with): UACC62 Melanoma

Substance: GGLSECV
- Cell Line with which the peptide (and its tripeptide motif) is associated: H226-Lung

Substance: ASGTLLR
- Cell Line (NCI-60 cell line the peptide and its motif are associated with): SK-MEL-28 Melanoma

Substance: MITRGRL
- Cell Line (NCI-60 cell line the peptide is associated with): HCT-15 Colon

Substance: NLRGSRS
- Cell Line (NCI-60 cell line the peptide and its motif are associated with): SK-MEL-2 Melanoma

Substance: SLYGLRW
- Cell Line (NCI-60 cell line the peptide and its motif are associated with): M14 Melanoma

Substance: GSSRVRW
- Cell Line (NCI-60 cell line the peptide is associated with): HCT-15 Colon

Substance: AAVTVVR
- Cell Line (NCI-60 cell line the peptide is associated with): KM-12C Colon

Substance: ARSSIVR
- Cell Line (NCI-60 cell line the peptide is associated with): SF-268 CNS

Substance: HGGPGAV
- Cell Line (NCI-60 cell line the peptide is associated with): LOX-IMVI Melanoma

Substance: PVSDGLV
- Cell Line (NCI-60 cell line the peptide and its motif are associated with): SK-OV-3-3 Ovarian

Substance: TGGLHWY
- Cell Line the peptide is associated with (peptide recovered from phage library selection on this NCI-60 cell line): TK-10 Renal

Substance: HFIRGSV
- Cell Line (NCI-60 cell line the peptide is associated with): HT-29 Colon

Substance: GLGIMGP
- Cell Line with which the peptide (and its tripeptide motif) is associated: K-562-Leukemia

Substance: GLGSCAP
- Cell Line the peptide is associated with (peptide recovered from phage library selection on this NCI-60 cell line): RXF393 Renal

Substance: SELRSIR
- Cell Line (NCI-60 cell line the peptide is associated with): COLO-205-Colon

Substance: LLSTSIR
- Cell Line with which the peptide (and its tripeptide motif) is associated: RPMI-8226-Leukemia

Substance: VARSSFR
- Cell Line (NCI-60 cell line the peptide and its motif are associated with): IGROV1 Ovarian

Substance: GLVRGTA
- Cell Line with which the peptide (and its tripeptide motif) is associated: Molt-4-Leukemia

Substance: GLRTRQV
- Cell Line with which the peptide (and its tripeptide motif) is associated: Hop-92-Lung

Substance: LARGVPP
- Cell Line (NCI-60 cell line the peptide and its motif are associated with): M14 Melanoma

Substance: HNGRLEV
- Cell Line with which the peptide (and its tripeptide motif) is associated: Hop-62-Lung

Substance: GSLGVSL
- Cell Line with which the peptide (and its tripeptide motif) is associated: H226-Lung

Substance: VRAAGRV
- Cell Line with which the peptide (and its tripeptide motif) is associated: Hop-62-Lung

Substance: RQDGGLY
- Cell Line (NCI-60 cell line the peptide and its motif are associated with): PC3 Prostate

Substance: GLVGRRA
- Cell Line (NCI-60 cell line the peptide is associated with): COLO-205-Colon

Substance: PLRVLKR
- Cell Line (NCI-60 cell line the peptide is associated with): SF-295 CNS

Substance: GGMNGRL
- Cell Line (NCI-60 cell line the peptide is associated with): HT-29 Colon

Substance: GVLEGRR
- Cell Line (NCI-60 cell line the peptide and its motif are associated with): UACC 257 Melanoma

Substance: LGGRQES
- Cell Line the peptide is associated with (peptide recovered from phage library selection on this NCI-60 cell line): ACHN Renal

Substance: RFYHLRS
- Cell Line with which the peptide (and its tripeptide motif) is associated: A549-Lung

Substance: LVGRVKL
- Cell Line (NCI-60 cell line the peptide is associated with): HT-29 Colon

Substance: VPPSGGR
- Cell Line the peptide is associated with (peptide recovered from phage library selection on this NCI-60 cell line): RXF393 Renal

Substance: DWGSRGV
- Cell Line the peptide is associated with (peptide recovered from phage library selection on this NCI-60 cell line): MDA-MB-231 Breast

Substance: SHRVSDS
- Cell Line with which the peptide (and its tripeptide motif) is associated: K-562-Leukemia

Substance: SRLSYRA
- Cell Line (NCI-60 cell line the peptide and its motif are associated with): 786-0 Renal
